Patent US20230293629A1, “METHODS FOR ATTENUATING RELEASE OF INFLAMMATORY MEDIATORS AND PEPTIDES USEFUL THEREIN” (BIOMARCK PHARMACEUTICALS LTD., priority 2006, published 2023)
Where a SMILES comes first, the peptide text is derived from it. Where no end group is shown, it is not given here. [ ]: non-standard residue; d: D form. The star is where a group is joined. Myristoyl = CCCCCCCCCCCCCC(=O)*

Assays:
[1] = tested on: human neutrophils; experiment: PMA-stimulated MPO release from isolated human neutrophils (TMB assay); format: cell-based; settings: 100 μM test peptide, two hour incubation with 100 nM PMA; human neutrophils
Source text: Human neutrophil isolation—These studies were approved by the human studies Institutional Review Board (IRB). Human neutrophils were isolated as previously described (see Takashi S, OkuboY, Horie S. Contribution of CD54 to human eosinophil and neutrophil superoxide production. J Appl Physiol 2001; 91:613-622) with slight modifications. Briefly, heparinized venous blood was obtained from normal healthy volunteers, diluted with RPMI-1640 (Cellgro; Mediatech, Inc., Herndon, VA) at a ratio of 1:1, layered onto a Histopaque (density, 1.077 g/ml; Sigma-Aldrich Co., St. Louis, MO) and centrifuged at 400 g for 20 min at 4° C. The supernatant and mononuclear cells at the interface were carefully removed, and erythrocytes in the sediment were lysed in chilled distilled water. Isolated granulocytes were washed twice with Hanks' balanced salts solution (HBSS) and resuspended in HBSS on ice.
Measurement of released neutrophil MPO activity—For measurement of MPO release, purified human neutrophils suspended in HBSS were aliquoted at 4×10^6 cells/ml in 15 ml tubes and preincubated with either 50 or 100 μM of MANS, RNS, or one of the peptides of invention for 10 min at 37° C. The cells then were stimulated with 100 nM phorbol 12-myristate 13-acetate (PMA) for up to 3 hrs. A control reference (PMA control reference) was established using purified human neutrophils suspended in HBSS aliquoted at 4×10^6 cells/ml in 15 mL tubes and stimulated with 100 nM phorbol 12-myristate 13-acetate (PMA) in the absence of a test peptide for the same time periods. The reaction was terminated by placing the tubes on ice and centrifugation at 400 g for 5 min at 4° C.
MPO activity in the cell supernatant was assayed using tetramethylbenzidine (TMB) based on a previously established technique (Abdel-Latif D, Steward M, Macdonald D L, Francis G A., Dinauer M C, Lacy P. Rac2 is critical for neutrophil primary granule exocytosis. Blood 2004; 104:832-839). Briefly, 100 μL of TMB substrate solution was added to 50 μL of cell supernatants or standard human MPO (EMD Biosciences, Inc., San Diego, CA) in a 96-well microplate followed by incubation at room temperature for 15 min. The reaction was terminated by addition of 50 μL of 1M […] and absorbance was read at 450 nm in a spectrophotometric microplate reader (VERSA max, Molecular Devices, Sunnyvale, CA).
The data presented in the table below represents 100 μM concentration of test peptides and a two hour incubation with 100 nM PMA.

[2] = Qualitative solubility of peptides in 0.5 N saline, pH 6.5
[3] = tested on: U937 cells; experiment: PMA-stimulated lysozyme secretion by U937 cells; format: cell-based, human; settings: 50 μM test peptide, two hour incubation with 100 nM PMA; U937 cells
Procedure: (§1) Three types of human leukocyte cell lines, specifically the promyelocytic cell line HL-60 clone 15, the monocytic cell line U937, and the lymphocyte natural killer cell line NK-92 were purchased from American Type Culture Collection (ATCC; Rockville, MD). HL-60 clone 15 cells (ATCC CRL-1964) were maintained in medium consisting of RPMI 1640 with L-glutamine supplemented with 10% heat-inactivated fetal bovine serum (Gibco; Invitrogen Co., Carlsbad, CA), 50 IU/ml penicillin, 50 μg/mL streptomycin, and 25 mM HEPES buffer, pH 7.8, at 37° C. in an atmosphere containing 5% CO2. Final differentiation to an eosinophil-like phenotype was initiated by culturing cells at 5×10^5 cells/ml in the above medium containing 0.5 mM butyric acid (Sigma-Aldrich Co.) for 5 days as previously described (Tiffany H L, Li F, Rosenberg H F. Hyperglycosylation of eosinophil ribonucleases in a promyelocytic leukemia cell line and in differentiated peripheral blood progenitor cells. J Leukoc Biol 1995; 58:49-54; Tiffany H L, Alkhatib G, Combadiere C, Berger E A, Murphy P M. CC chemokine receptors 1 and 3 are differentially regulated by IL-5 during maturation of eosinophilic HL-60 cells. J Immunol 1998; 160:1385-1392). U937 cells (ATCC CRL-1593.2) were grown at 37° C. in an atmosphere of 5% CO2 in complete medium consisting of RPMI 1640 with L-glutamine supplemented with 10% FBS, 50 IU/ml penicillin, and 50 μg/mL streptomycin. NK-92 cells (ATCC CRL-2407) were maintained in alpha-MEM medium (Sigma-Aldrich Co.) supplemented with 20% FBS, 100 U/ml of interleukin-2 (IL-2) (Chemicon International, Inc., Temecula, CA), 5×10^−5 M of 2-mercaptoethanol, 50 IU/mL penicillin, and 50 μg/ml streptomycin at 37° C. in an atmosphere containing 5% CO2. Cell morphology was judged by assessment of Wright-Giemsa-stained cells. Viability of cells harvested for experiments was assessed by trypan blue exclusion and populations of cells with viability >95% were used.
(§2) HL-60 clone 15, U937, and NK-92 cells were washed and resuspended at 2.5×10^6 cells/ml in phenol red-free RPMI-1640 (Cellgro; Mediatech, Inc.) for all degranulation assays. Aliquots of cells in 15 ml tubes were preincubated with indicated concentrations of MANS, RNS, or a test peptide for 10 min at 37° C. The cells then were stimulated with PMA for up to 2 hr. A control reference (PMA control reference) was established for each cell type using HL-60 clone 15, U937, and NK-92 cells, respectively, which were washed and resuspended at 2.5×10^6 cells/ml in phenol red-free RPMI-1640 and stimulated with PMA but in the absence of MANS, RNS, or a test peptide for the same time periods. The reaction was terminated by placing tubes on ice and centrifuging cells at 400 g for 5 min at 4° C.
(§3) For measurements of released MPO from neutrophils and released lysozyme from U937 cells, we were able to quantify secretion by using as standards human MPO and egg white […], respectively. For released EPO from HL-60 clone 15 cells and for released granzyme from NK-92 cells, no standards were available to use for quantification. […] To measure intracellular EPO in HL-60 clone 15 cells and intracellular granzyme in NK-92 cells, appropriate aliquots of 0.1% triton X-100-lysed cells were taken for quantification of intracellular granule proteins as described below. All treatments were expressed as percentage of control to minimize variability between cultures.
Lysozyme secreted by U937 cells was measured using a spectrophotometric assay as described previously (Balboa M A, Saez Y, Balsinde J. Calcium-independent phospholipase A2 is required for lysozyme secretion in U937 promonocytes. J Immunol 2003; 170:5276-5280) with slight modification. Thus, 100 μL of sample was mixed with 100 μL of a Micrococcus lysodeikticus (Sigma-Aldrich Co.) suspension (0.3 mg/ml in 0.1 M sodium phosphate buffer, pH 7.0) in a 96-well microplate. The decrease in absorbance at 450 nm was measured at room temperature. […]

[4] = tested on: HL-60 clone 15 cells; experiment: PMA-stimulated EPO release from HL-60 clone 15 cells; format: cell-based, human; settings: 50 μM test peptide, two hour incubation with 100 nM PMA; HL-60 clone 15 cells
Procedure: as §1, §2, §3
EPO activity released by HL-60 clone 15 cells was assayed using TMB according to a previously established technique (Lacy P, Mahmudi-Azer S, Bablitz B, Hagen S C, Velazquez J R, Man S F, Moqbel R. Rapid mobilization of intracellularly stored RANTES in response to interferon-gamma in human eosinophils. Blood 1999; 94:23-32). Thus, 100 μL of TMB substrate solution was added to 50 μL=microliters) of sample in a 96-well microplate and incubated at room temperature for 15 min (min=minutes). […]

Compound | % Inhibition MPO [1] [%] | solubility [2] [mg/mL] | % Inhibition Lysozyme [3] [%] | % Inhibition EPO [4] [%]
CCCCCCCCCCCCCC(=O)NCC(=O)N[C@@H](C)C(=O)N[C@@H](CCC(N)=O)C(=O)N[C@@H](Cc1ccccc1)C(=O)N[C@@H](CO)C(=O)N[C@@H](CCCCN)C(=O)N[C@H](C(=O)N[C@@H](CCCCN)C(=O)N[C@@H](C)C(=O)N[C@@H](CCCCN)C(=O)NCC(=O)N[C@@H](CCC(=O)O)C(=O)O)[C@@H](C)O [MA-GAQFSKTKAKGE, GAQFSKTKAKGE] (Myristoyl-GAQFSKTKAKGE-OH; C-terminus assumed) | 65.2 | > 3 | – | –
Ac-GAQFSKTAAKGE-NH2 [Ac-GAQFSKTAAKGE-NH2, GAQFSKTAAKGE] | 26.5 | > 60 | 38.6 | 24.7
CC(=O)NCC(=O)N[C@H](C)C(=O)N[C@H](CCC(N)=O)C(=O)N[C@H](Cc1ccccc1)C(=O)N[C@H](CO)C(=O)N[C@H](CCCCN)C(=O)N[C@@H](C(=O)N[C@H](C)C(=O)N[C@H](C)C(=O)N[C@H](CCCCN)C(=O)O)[C@H](C)O [Ac-GAQFSKTAAK (all d), GAQFSKTAAK (all d)] (Ac-G[dA][dQ][dF][dS][dK][dT][dA][dA][dK]-OH; C-terminus assumed) | 40.0 | > 100 | 8.9 | 26.9
CCCCCCCCCCCCCC(=O)NCC(=O)N[C@@H](C)C(=O)N[C@@H](CCC(N)=O)C(=O)N[C@@H](Cc1ccccc1)C(=O)N[C@@H](CO)C(=O)N[C@@H](CCCCN)C(=O)N[C@H](C(=O)N[C@@H](C)C(=O)N[C@@H](C)C(=O)N[C@@H](CCCCN)C(=O)O)[C@@H](C)O [MA-GAQFSKTAAK, GAQFSKTAAK] (Myristoyl-GAQFSKTAAK-OH; C-terminus assumed) | – | > 10 | 56.6 | 37.4
CCCCCCCCCCCCCC(=O)N[C@@H](C)C(=O)N[C@@H](C)C(=O)N[C@@H](CCCCN)C(=O)NCC(=O)N[C@@H](CCC(=O)O)C(=O)N[C@@H](C)C(=O)O [MA-AAKGEA, AAKGEA] (Myristoyl-AAKGEA-OH; C-terminus assumed) | – | < 1 | 28.6 | 31.4
Ac-GAQFSKTAAAGE [Ac-GAQFSKTAAAGE, GAQFSKTAAAGE] | – | > 50 | 37.2 | 55.8
Ac-AQFSKTAAKGE-NH2 [Ac-AQFSKTAAKGE-NH2, AQFSKTAAKGE] | – | > 90 | 51.8 | 42.8
CCCCCCCCCCCCCC(=O)NCC(=O)N[C@@H](C)C(=O)N[C@@H](CCC(N)=O)C(=O)N[C@@H](Cc1ccccc1)C(=O)N[C@@H](CO)C(=O)N[C@@H](CCCCN)C(=O)N[C@H](C(=O)N[C@@H](C)C(=O)N[C@@H](C)C(=O)N[C@@H](CCCCN)C(=O)NCC(=O)N[C@@H](CCC(=O)O)C(=O)N[C@@H](C)C(=O)N[C@@H](C)C(=O)N[C@@H](C)C(=O)N[C@@H](CCC(=O)O)C(=O)O)[C@@H](C)O [MA-GAQFSKTAAKGEAAAE, GAQFSKTAAKGEAAAE] (Myristoyl-GAQFSKTAAKGEAAAE-OH; C-terminus assumed) | – | > 2 | 99 | 30.3
Ac-FSKTAAKGE-NH2 [Ac-FSKTAAKGE-NH2, FSKTAAKGE] | – | > 100 | 56.7 | 25.3
H-GAQFSKTAAKGE [peptide 79, GAQFSKTAAKGE] | 27.9 | – | – | –
CCCCCCCCCCCCCC(=O)N[C@@H](C)C(=O)N[C@@H](CCCCN)C(=O)NCC(=O)N[C@@H](CCC(=O)O)C(=O)O [MA-AKGE, AKGE] (Myristoyl-AKGE-OH; C-terminus assumed) | – | < 1 | 28.6 | 0
Ac-AAKGEA [Ac-AAKGEA, AAKGEA] | – | > 150 | 9.2 | 10.6
Ac-QFSKTAAKGE-NH2 [Ac-QFSKTAAKGE-NH2, QFSKTAAKGE] | – | > 150 | 60.7 | 15.7
Ac-GAQFSATAAA [Ac-GAQFSATAAA, GAQFSATAAA] | – | < 10 | 3.2 | 35.7
Ac-GAQFSKTAA [Ac-GAQFSKTAA, GAQFSKTAA] | – | > 20 | 28.9 | 33.3
